In patent US20080200442A1, “Compositions and Methods for Treating, Reducing, Ameliorating, or Preventing Infections of the Ear or Upper Respiratory Tract” (priority 2007, published 2008):
≈ marks a conversion by molar mass, not a printed value.

Tests used:
Assay type in all cases: cell-based
Moraxella species = experiment: In vitro anti-bacterial activity (MIC90), ophthalmologic clinical bacteria isolates; conditions: Gram-negative
Pseudomonas aeruginosa = experiment: as above; conditions: Gram-negative
Haemophilus influenzae = experiment: as above; conditions: Gram-negative
Staphylococcus aureus = experiment: as above; conditions: Gram-positive
[1] = tested on: Coagulase-negative Staphylococcus; experiment: as above; conditions: Gram-positive
Streptococcus pneumoniae = experiment: as above; conditions: Gram-positive
Corynebacterium species = experiment: as above; conditions: Gram-positive
Propionibacterium acnes = experiment: as above; conditions: Cutibacterium acnes, Gram-positive
[2] = tested on: Ofloxacin-resistant Staphylococcus aureus; experiment: as above
[3] = tested on: Gentamycin-resistant Staphylococcus aureus; experiment: as above
[4] = tested on: Gentamycin-resistant Pseudomonas aeruginosa; experiment: as above
[5] = tested on: Penicillin-resistant Streptococcus pneumoniae; experiment: as above
[6] = tested on: Salmonella typhimurium (TD); experiment: In vitro anti-bacterial activity (MIC90), Gram-negative reference strains
Method: Anti-bacterial activity of the compound having Formula III was tested against several Gram-negative reference bacteria strains and compared to the anti-bacterial activity of three commercially available antibiotics (nadifloxacin, ofloxacin, and sparfloxacin).

[7] = tested on: Bacillis subtilis (ATCC 6633); experiment: In vitro anti-bacterial activity (MIC90), Gram-positive reference strains
Method: (§1) Anti-bacterial activity of the compound having Formula III was tested against several Gram-negative reference bacteria strains and compared to the anti-bacterial activity of three commercially available antibiotics (nadifloxacin, ofloxacin, and sparfloxacin). The results are shown in Table 2 as MIC90 values (minimum concentration of the active compound required to inhibit ninety percent of the growth of a specified pathogen, in μg/ml). Anti-bacterial activity of the compound having Formula III was tested against several Gram-positive reference bacteria strains and compared to the anti-bacterial activity of three commercially available antibiotics (nadifloxacin, ofloxacin, and sparfloxacin).

[8] = tested on: Sarcina lutea (ATCC 9341); experiment: as above; conditions: Micrococcus luteus, ATCC9341
Method: as §1

[9] = tested on: Staphylococcus aureus (ATCC 25933); experiment: as above; conditions: ATCC25933
Method: as §1

[10] = tested on: Staphylococcus aureus (FDA 209P); experiment: as above; conditions: FDA209P
Method: as §1

[11] = tested on: Staphylococcus aureus (Smith); experiment: as above
Method: as §1

[12] = tested on: Staphylococcus epidermidis (ATCC 12228); experiment: as above; conditions: ATCC12228
Method: as §1

[13] = tested on: Streptococcus faecalis (ATCC 29212); experiment: as above; conditions: Enterococcus faecalis, ATCC29212
Method: as §1

[14] = tested on: Streptococcus faecalis (IFO 12964); experiment: as above; conditions: Enterococcus faecalis, IFO12964
Method: as §1

[15] = tested on: Streptococcus pneniae (IID 554); experiment: as above; conditions: IID554
Method: as §1

[16] = tested on: Streptococcus pneumoniae (IID 553); experiment: as above; conditions: IID553
Method: as §1

[17] = tested on: Streptococcus pyogenes (Cook); experiment: as above
Method: as §1

[18] = tested on: Streptococcus pyogenes (IID 698); experiment: as above; conditions: IID698
Method: as §1

[19] = tested on: Staphylococcus aureus (ATCC 33591); experiment: In vitro anti-bacterial activity (MIC90), methicillin-resistant Staphylococcus aureus isolates; conditions: ATCC33591; methicillin-resistant Staphylococcus aureus (ATCC 33591)
Method: (§2) Anti-bacterial activity of the compound having Formula III was tested against several Gram-negative reference bacteria strains and compared to the anti-bacterial activity of three commercially available antibiotics (nadifloxacin, ofloxacin, and sparfloxacin). The results are shown in Table 2 as MIC90 values (minimum concentration of the active compound required to inhibit ninety percent of the growth of a specified pathogen, in μg/ml).
(§3) Anti-bacterial activity of the compound having Formula III was tested against some methicillin-resistant Staphylococcus aureus bacteria strains and compared to the anti-bacterial activity of three commercially available antibiotics (nadifloxacin, ofloxacin, and sparfloxacin).

[20] = tested on: Staphylococcus aureus (ATCC 33592); experiment: as above; conditions: ATCC33592; methicillin-resistant Staphylococcus aureus (ATCC 33592)
Method: as §2, §3

[21] = tested on: Staphylococcus aureus (ATCC 33593); experiment: as above; conditions: ATCC33593; methicillin-resistant Staphylococcus aureus (ATCC 33593)
Method: as §2, §3

[22] = tested on: Staphylococcus aureus (No. 395); experiment: as above; conditions: methicillin-resistant Staphylococcus aureus (No. 395)
Method: as §2, §3

[23] = tested on: Staphylococcus aureus (No. 415); experiment: as above; conditions: methicillin-resistant Staphylococcus aureus (No. 415)
Method: as §2, §3

[24] = tested on: Staphylococcus aureus (No. 419); experiment: as above; conditions: methicillin-resistant Staphylococcus aureus (No. 419)
Method: as §2, §3

[25] = tested on: Staphylococcus aureus (No. 420); experiment: as above; conditions: methicillin-resistant Staphylococcus aureus (No. 420)
Method: as §2, §3

[26] = tested on: Staphylococcus aureus (No. 421); experiment: as above; conditions: methicillin-resistant Staphylococcus aureus (No. 421)
Method: as §2, §3

[27] = tested on: Clostridium perfringens (KZ 210); experiment: microbe, parasite or virus in culture
[28] = tested on: Peptostreptococcus micros (GIFU 7824); experiment: In vitro anti-bacterial activity (MIC90), anaerobic reference bacteria; conditions: Parvimonas micra
[29] = tested on: Peptostreptococcus magnum (GAI 0664); experiment: as above
[30] = tested on: Propionibacterium acnes (GAI 5419); experiment: as above; conditions: Cutibacterium acnes
[31] = tested on: Propionibacterium acnes (ATCC 6919); experiment: as above; conditions: Cutibacterium acnes, ATCC6919
[32] = tested on: Propionibacterium acnes (ATCC 11828); experiment: as above; conditions: Cutibacterium acnes, ATCC11828
[33] = tested on: Bacteroides fragillis (GAI 0675); experiment: as above
[34] = tested on: Bacteroides thetaiotaomicron (GAI 0659); experiment: as above; conditions: Bacteroides thetaiotaomicron
[35] = tested on: Bacteroides vulgatus (GAI 0673); experiment: as above; conditions: Phocaeicola vulgatus
[36] = tested on: Veillonella parvula (GAI 5602); experiment: as above

Compound `CCn1cc(C(=O)O)c(=O)c2cc(F)c(N3CCNCC3)cc21` [Norfloxacin] has an MIC90 (Moraxella species) of 0.25 µg/mL (≈ 0.783 µM), an MIC90 (Pseudomonas aeruginosa) of 4 µg/mL (≈ 12.5 µM) and an MIC90 (Haemophilus influenzae) of at most 0.06 µg/mL. The MIC90 (Staphylococcus aureus) was over 128 µg/mL, the MIC90 [1] was 128 µg/mL (≈ 401 µM) and the MIC90 (Streptococcus pneumoniae) was 8 µg/mL (≈ 25.1 µM). The MIC90 (Corynebacterium species) was 16 µg/mL (≈ 50.1 µM), the MIC90 (Propionibacterium acnes) was 4 µg/mL (≈ 12.5 µM) and the MIC90 [2] was over 128 µg/mL. For the same compound, the MIC90 [3] was 128 µg/mL (≈ 401 µM), the MIC90 [4] was 128 µg/mL (≈ 401 µM) and the MIC90 [5] was 8 µg/mL (≈ 25.1 µM).

For `CC1COc2c(N3CCN(C)CC3)c(F)cc3c(=O)c(C(=O)O)cn1c23` (centres unmarked) [Ofloxacin], the MIC90 [6] was 0.05 mμg/mL, the MIC90 [7] was 0.05 µg/mL (≈ 0.138 µM) and the MIC90 [8] was 3.13 µg/mL (≈ 8.66 µM). It also gave an MIC90 [9] of 0.39 µg/mL (≈ 1.08 µM), an MIC90 [10] of 0.2 µg/mL (≈ 0.553 µM) and an MIC90 [11] of 0.2 µg/mL (≈ 0.553 µM). For the same compound, the MIC90 [12] was 0.78 µg/mL (≈ 2.16 µM), the MIC90 [13] was 1.56 µg/mL (≈ 4.32 µM) and the MIC90 [14] was 1.56 µg/mL (≈ 4.32 µM). It also gave an MIC90 [15] of 1.56 µg/mL (≈ 4.32 µM), an MIC90 [16] of 1.56 µg/mL (≈ 4.32 µM) and an MIC90 [17] of 0.78 µg/mL (≈ 2.16 µM). It also gave an MIC90 [18] of 0.39 µg/mL (≈ 1.08 µM), an MIC90 [19] of 0.05 µg/mL (≈ 0.138 µM) and an MIC90 [20] of 0.39 µg/mL (≈ 1.08 µM). For the same compound, the MIC90 [21] was 0.2 µg/mL (≈ 0.553 µM), the MIC90 [22] was 0.2 µg/mL (≈ 0.553 µM) and the MIC90 [23] was 0.78 µg/mL (≈ 2.16 µM). The MIC90 [24] was 3.13 µg/mL (≈ 8.66 µM), the MIC90 [25] was 1.56 µg/mL (≈ 4.32 µM) and the MIC90 [26] was 1.56 µg/mL (≈ 4.32 µM). The MIC90 [27] was 0.78 µg/mL (≈ 2.16 µM), the MIC90 [28] was 0.78 µg/mL (≈ 2.16 µM) and the MIC90 [29] was 0.39 µg/mL (≈ 1.08 µM). For the same compound, the MIC90 [30] was 0.78 µg/mL (≈ 2.16 µM), the MIC90 [31] was 0.78 µg/mL (≈ 2.16 µM) and the MIC90 [32] was 1.56 µg/mL (≈ 4.32 µM). The MIC90 [33] was 1.56 µg/mL (≈ 4.32 µM), the MIC90 [34] was 3.13 µg/mL (≈ 8.66 µM) and the MIC90 [35] was 3.13 µg/mL (≈ 8.66 µM). For the same compound, the MIC90 [36] was 0.39 µg/mL (≈ 1.08 µM), the MIC90 (Moraxella species) was 0.13 µg/mL (≈ 0.36 µM) and the MIC90 (Pseudomonas aeruginosa) was 4 µg/mL (≈ 11.1 µM). For the same compound, the MIC90 (Haemophilus influenzae) was at most 0.06 µg/mL, the MIC90 (Staphylococcus aureus) was 32 µg/mL (≈ 88.6 µM) and the MIC90 [1] was 8 µg/mL (≈ 22.1 µM). It also gave an MIC90 (Streptococcus pneumoniae) of 2 µg/mL (≈ 5.53 µM), an MIC90 (Corynebacterium species) of 32 µg/mL (≈ 88.6 µM) and an MIC90 (Propionibacterium acnes) of 1 µg/mL (≈ 2.77 µM). It also gave an MIC90 [2] of over 128 µg/mL, an MIC90 [3] of 128 µg/mL (≈ 354 µM) and an MIC90 [4] of 64 µg/mL (≈ 177 µM). The MIC90 [5] was 2 µg/mL (≈ 5.53 µM).

For `C[C@@H]1CN(c2c(F)c(N)c3c(=O)c(C(=O)O)cn(C4CC4)c3c2F)C[C@H](C)N1` [Sparfloxacin], the MIC90 [6] was 0.012 mμg/mL, the MIC90 [7] was 0.024 µg/mL (≈ 0.0612 µM) and the MIC90 [8] was 1.56 µg/mL (≈ 3.98 µM). It also gave an MIC90 [9] of 0.1 µg/mL (≈ 0.255 µM), an MIC90 [10] of 0.024 µg/mL (≈ 0.0612 µM) and an MIC90 [11] of 0.05 µg/mL (≈ 0.127 µM). For the same compound, the MIC90 [12] was 0.2 µg/mL (≈ 0.51 µM), the MIC90 [13] was 0.39 µg/mL (≈ 0.994 µM) and the MIC90 [14] was 0.78 µg/mL (≈ 1.99 µM). The MIC90 [15] was 0.39 µg/mL (≈ 0.994 µM), the MIC90 [16] was 0.39 µg/mL (≈ 0.994 µM) and the MIC90 [17] was 0.39 µg/mL (≈ 0.994 µM). The MIC90 [18] was 0.2 µg/mL (≈ 0.51 µM), the MIC90 [19] was 0.024 µg/mL (≈ 0.0612 µM) and the MIC90 [20] was 0.1 µg/mL (≈ 0.255 µM). The MIC90 [21] was 0.024 µg/mL (≈ 0.0612 µM), the MIC90 [22] was 0.05 µg/mL (≈ 0.127 µM) and the MIC90 [23] was 0.2 µg/mL (≈ 0.51 µM). For the same compound, the MIC90 [24] was 1.56 µg/mL (≈ 3.98 µM), the MIC90 [25] was 0.78 µg/mL (≈ 1.99 µM) and the MIC90 [26] was 0.39 µg/mL (≈ 0.994 µM). The MIC90 [27] was 0.39 µg/mL (≈ 0.994 µM), the MIC90 [28] was 0.78 µg/mL (≈ 1.99 µM) and the MIC90 [29] was 0.1 µg/mL (≈ 0.255 µM). The MIC90 [30] was 0.39 µg/mL (≈ 0.994 µM), the MIC90 [31] was 0.39 µg/mL (≈ 0.994 µM) and the MIC90 [32] was 0.78 µg/mL (≈ 1.99 µM). The MIC90 [33] was 0.78 µg/mL (≈ 1.99 µM), the MIC90 [34] was 0.78 µg/mL (≈ 1.99 µM) and the MIC90 [35] was 0.78 µg/mL (≈ 1.99 µM). For the same compound, the MIC90 [36] was 0.2 µg/mL (≈ 0.51 µM).
